The nature of experiment [1]: Inhibition of BTK in goat anti-human IgM F(ab')2-stimulated human B cells assessed as reduction in cell proliferation pretreated for 30 mins followed by goat anti-human IgM F(ab')2-stimulation and measured after 3 days by [3H]-thymidine incorporation assay. In general terms: Incorporation of labelled thymidine or its analogues reports DNA synthesis.
Experiment [2] in a line: Inhibition of BTK in anti-CD3/CD28-stimulated human CD4-positive T cells assessed as reduction in cell proliferation pretreated for 30 mins followed by anti-CD3/CD28-stimulation and measured after 3 days by [3H]-thymidine incorporation assay.

pIC50: −log10 of the molar value.

Turning to `N#CN1CCC[C@@H](n2nc(-c3ccc(Oc4ccc(F)cc4F)cc3)c(C(N)=O)c2N)C1`, the results for the pIC50 in experiment [1] and in experiment [2] were 8.57 and < 5.00, respectively.

For `N#CN1CCC[C@@H](n2nc(-c3ccc(Oc4ncc(Cl)cc4F)cc3)c(C(N)=O)c2N)C1` [(R)-5-amino-3-(4-((5-chloro-3-fluoropyridin-2-yl)oxy)phenyl)-1-(1-cyanopiperidin-3-yl)-1H-pyrazole-4-carboxamide], the pIC50 was 7.72 in experiment [1] and < 5.00 in experiment [2].

On to `N#CN1CCC[C@@H](n2nc(-c3ccc(Oc4cccc(C(F)(F)F)n4)cc3)c(C(N)=O)c2N)C1`, for which the figures for the pIC50 in experiment [1] and in experiment [2] were 7.82 and 5.00, respectively.

Take `N#CN1CCCC(n2nc(-c3ccc(Oc4ccc(Cl)cc4)cc3)c(C(N)=O)c2N)C1` (single isomer, unassigned): the pIC50 in experiment [1] is 8.77; in experiment [2] it was 5.09.

With `N#CN1CCC[C@@H](n2nc(-c3ccc(Oc4ccc(Cl)cn4)cc3)c(C(N)=O)c2N)C1`, the pIC50 in experiment [1] was 8.80; in experiment [2], < 5.00.

A word on the pIC50: it is the negative decadic logarithm of the IC50, by convention in mol/L.

(Values after BindingDB's records for doi:10.1021/acsmedchemlett.8b00461 (Pfizer, 2019).)
